Test system: 28 target genes (defense genes) in apple tree leaves
Experiment: Test 1: relative expression of the 28 defense genes (qPCR, ΔΔCt) in apple tree seedling leaves subjected to NDS treatments and abiotic stresses
Type: in vivo, apple tree seedlings (Golden Delicious)
Conditions: for Relative expression ACCO (log base 2) / Relative expression APOX (log base 2) / Relative expression CAD (log base 2) / Relative expression CHS (log base 2) / Relative expression CSL (log base 2) / Relative expression CalS (log base 2) / Relative expression DFR (log base 2) / Relative expression EDS1 (log base 2) / Relative expression EIN3 (log base 2) / Relative expression FPPS (log base 2) / Relative expression Far (log base 2) / Relative expression GST (log base 2) / Relative expression HMGR (log base 2) / Relative expression JAR (log base 2) / Relative expression LOX2 (log base 2) / Relative expression POX (log base 2) / Relative expression PPO (log base 2) / Relative expression Pect (log base 2) / Relative expression WRKY (log base 2): abiotic stress; for Relative expression of ANS / Relative expression of PAL / Relative expression of PR-1 / Relative expression of PR-2 / Relative expression of PR-4 / Relative expression of PR-5 / Relative expression of PR-8 / Relative expression of PR-14 / Relative expression of PR-15: vs water control, abiotic stress treatment

## C[n+]1ccc(-c2cc[n+](C)cc2)cc1 [Paraquat, paraquat dichloride x-hydrate]
Test 1
  effect on the modulation of target gene expression (in words): strongly activates some genes
J1, relative to water control
  Relative expression ACCO (log base 2): −1.33
  Relative expression APOX (log base 2): 0.00
  Relative expression CAD (log base 2): 0.04
  Relative expression CHS (log base 2): −1.56
  Relative expression CSL (log base 2): 2.29
  Relative expression CalS (log base 2): 0.00
  Relative expression DFR (log base 2): −0.74
  Relative expression EDS1 (log base 2): 0.83
  Relative expression EIN3 (log base 2): 0.00
  Relative expression FPPS (log base 2): 1.02
  Relative expression Far (log base 2): 2.76
  Relative expression GST (log base 2): 1.99
  Relative expression HMGR (log base 2): 2.85
  Relative expression JAR (log base 2): 0.00
  Relative expression LOX2 (log base 2): −0.58
  Relative expression POX (log base 2): 0.00
  Relative expression PPO (log base 2): 0.67
  Relative expression Pect (log base 2): 0.00
  Relative expression WRKY (log base 2): 4.01
J2, relative to water control
  Relative expression ACCO (log base 2): 0.02
  Relative expression APOX (log base 2): 2.01
  Relative expression CAD (log base 2): 0.27
  Relative expression CHS (log base 2): −1.49
  Relative expression CSL (log base 2): 4.42
  Relative expression CalS (log base 2): 0.42
  Relative expression DFR (log base 2): −1.14
  Relative expression EDS1 (log base 2): 2.89
  Relative expression EIN3 (log base 2): 0.21
  Relative expression FPPS (log base 2): 0.15
  Relative expression Far (log base 2): 2.30
  Relative expression GST (log base 2): 1.83
  Relative expression HMGR (log base 2): 1.20
  Relative expression JAR (log base 2): −0.81
  Relative expression LOX2 (log base 2): −0.54
  Relative expression POX (log base 2): 4.26
  Relative expression PPO (log base 2): 6.27
  Relative expression Pect (log base 2): 2.17
  Relative expression WRKY (log base 2): 6.37
J3, relative to water control
  Relative expression ACCO (log base 2): 0.41
  Relative expression APOX (log base 2): 1.48
  Relative expression CAD (log base 2): −0.51
  Relative expression CHS (log base 2): −2.04
  Relative expression CSL (log base 2): 5.43
  Relative expression CalS (log base 2): 0.01
  Relative expression DFR (log base 2): −2.09
  Relative expression EDS1 (log base 2): 2.28
  Relative expression EIN3 (log base 2): −0.11
  Relative expression FPPS (log base 2): −1.83
  Relative expression Far (log base 2): 1.85
  Relative expression GST (log base 2): 0.80
  Relative expression HMGR (log base 2): −0.24
  Relative expression JAR (log base 2): −2.46
  Relative expression LOX2 (log base 2): −2.37
  Relative expression POX (log base 2): −0.53
  Relative expression PPO (log base 2): 4.63
  Relative expression Pect (log base 2): −2.82
  Relative expression WRKY (log base 2): 2.76
J1
  Relative expression of ANS: 0.00 log2
  Relative expression of PAL: 1.99 log2
  Relative expression of PR-1: 0.55 log2
  Relative expression of PR-2: 4.09 log2
  Relative expression of PR-4: 7.10 log2
  Relative expression of PR-5: 0.00 log2
  Relative expression of PR-8: 0.00 log2
  Relative expression of PR-14: 2.61 log2
  Relative expression of PR-15: 0.00 log2
J2
  Relative expression of ANS: −2.09 log2
  Relative expression of PAL: 2.56 log2
  Relative expression of PR-1: 3.00 log2
  Relative expression of PR-2: 5.88 log2
  Relative expression of PR-4: 6.93 log2
  Relative expression of PR-5: −3.05 log2
  Relative expression of PR-8: 5.12 log2
  Relative expression of PR-14: 6.04 log2
  Relative expression of PR-15: 4.77 log2
J3
  Relative expression of ANS: −0.78 log2
  Relative expression of PAL: 0.66 log2
  Relative expression of PR-1: 0.54 log2
  Relative expression of PR-2: 2.53 log2
  Relative expression of PR-4: 6.63 log2
  Relative expression of PR-5: −8.56 log2
  Relative expression of PR-8: 5.36 log2
  Relative expression of PR-14: 1.28 log2
  Relative expression of PR-15: −0.34 log2

Source: patent US9290788B2, “Device for determining or studying the state of stimulation of the natural defences of plants or portions of plants” (Institut National De La Recherche Agronomique, priority 2010, dated 2016)
